Experimental data as given in ChEMBL document CHEMBL4613303, “New Dihydrothiazole Benzensulfonamides: Looking for Selectivity toward Carbonic Anhydrase Isoforms I, II, IX, and XII” (ACS Med Chem Lett, 2020).

Biological target: Carbonic anhydrase 9 (Homo sapiens, UniProt Q16790)
Assay: Inhibition of recombinant human carbonic anhydrase 9 incubated for 6 hrs prior to testing measured for 10 to 100 secs by phenol red-based stopped-flow CO2 hydration assay

Row | Ki [nM] | Structure (SMILES)
1 | 3390 | CCn1c(-c2ccc(Br)cc2)cs/c1=N/c1ccc(S(N)(=O)=O)cc1
2 | 4330 | CCn1c(-c2ccc(C#N)cc2)cs/c1=N/c1ccc(S(N)(=O)=O)cc1
3 | 214 | CCn1c(-c2cccc([N+](=O)[O-])c2)cs/c1=N/c1ccc(S(N)(=O)=O)cc1
4 | 4320 | CCn1c(-c2ccc([N+](=O)[O-])cc2)cs/c1=N/c1ccc(S(N)(=O)=O)cc1
5 | 358 | CCn1c(-c2ccc(C)cc2)cs/c1=N/c1ccc(S(N)(=O)=O)cc1
6 | 248 | CCn1c(-c2ccccc2)cs/c1=N/c1ccc(S(N)(=O)=O)cc1
7 | 109 | CCn1c(-c2ccc(Cl)cc2)cs/c1=N/c1ccc(S(N)(=O)=O)cc1
8 | 297 | CCn1c(-c2cccs2)cs/c1=N/c1ccc(S(N)(=O)=O)cc1
9 | 144 | CCn1c(-c2ccc(F)cc2F)cs/c1=N/c1ccc(S(N)(=O)=O)cc1
10 | 4310 | CCn1c(-c2ccc(-c3ccccc3)cc2)cs/c1=N/c1ccc(S(N)(=O)=O)cc1
11 | 3930 | CCn1c(-c2ccc(F)cc2)cs/c1=N/c1ccc(S(N)(=O)=O)cc1
12 | 205 | CCn1c(-c2ccc(OC)cc2)cs/c1=N/c1ccc(S(N)(=O)=O)cc1
13 | 225 | CCn1c(-c2ccc(Cl)cc2Cl)cs/c1=N/c1ccc(S(N)(=O)=O)cc1
